The source of these data is patent publication US20140094413A1, “HEPATOCYTE GROWTH FACTOR (HGF) MIMICS AS THERAPEUTIC AGENTS” (WASHINGTON STATE UNIVERSITY, priority 2012, published 2014).

“Also recorded” adds a separate entry of the source. Where a SMILES comes first, the peptide text is derived from it. [ ]: non-standard residue; d: D form. The star is where a group is joined. Hexanoyl = CCCCCC(=O)*; Ahx = NCCCCCC(=O)O

For this test, the system named is CA1 neurons in coronal slices of rat hippocampus. In words: Hippocampal long-term potentiation with theta burst stimulation. It counts as cell-based. The settings on record: Dihexa 1 μM applied 10 minutes prior to TBS. How it is done:
FIG. 45. Effect of Dihexa (Hex) on hippocampal long-term potentiation (LTP) generated with theta burst (TBS) stimulation. LTP was monitored at CA1 neurons in coronal slices of rat hippocampus. Dihexa (1 μM) was applied 10 minutes prior to TBS. 1N=4. Dihexa application augmented LTP.

Consider `CCCCCC(=O)N[C@@H](Cc1ccc(O)cc1)C(=O)N[C@H](C(=O)NCCCCCC(N)=O)[C@@H](C)CC` [Dihexa, N-hexanoic-Tyr-Ile-(6)-aminohexanoic amide] (Hexanoyl-Tyr-Ile-[Ahx]-NH2), for which the Long-term potentiation result is listed as “enhances LTP; also recorded: augmented LTP”.
